Experimental data published in ChEMBL document CHEMBL3885861, “Open TG-GATES”.

Species: Rattus norvegicus
Assay: Open TG-GATES - Regimen: Daily Repeat
Format: toxicity, organism-based, Sprague-Dawley
Parameters: regimen Daily Repeat, gender Male, age 6 weeks
Conditions: in vivo, po, 20 mg/kg, […], route gavage, dose level Low; for KIDNEY_L / KIDNEY_R / KIDNEY_TOTAL: tissue Kidney; for LIVER: tissue Liver; for A/G / ALP / ALT / AST / BUN / CRE / Ca / Cl / DBIL / GLC / IP / K / LDH / Na / PL / RALB / TBIL / TC / TG / TP / gamma-GTP: tissue Plasma

CC(CN1c2ccccc2Sc2ccccc21)N(C)C (stereo unspecified) [PROMETHAZINE]
Lym (tissue Blood, time 28 day): 79.2% | MCH (tissue Blood, time 28 day): 19.1 pg | MCHC (tissue Blood, time 28 day): 34.6% | MCV (tissue Blood, time 28 day): 55.2 fL | Mono (tissue Blood, time 28 day): 1.6% | Neu (tissue Blood, time 28 day): 17.4% | PT (tissue Blood, time 28 day): 16.3 s | Plat (tissue Blood, time 28 day): 96.2 x10_4/uL | RBC (tissue Blood, time 28 day): 787.8 x10_4/ul | Ret (tissue Blood, time 28 day): 2.3% | WBC (tissue Blood, time 28 day): 118.8 x10_2/uL | KIDNEY_L (time 7 day): 1.1 g | KIDNEY_R (time 7 day): 1.1 g | KIDNEY_TOTAL (time 7 day): 2.2 g | KIDNEY_L (time 14 day): 1.1 g | KIDNEY_R (time 14 day): 1.1 g | KIDNEY_TOTAL (time 14 day): 2.3 g | KIDNEY_L (time 28 day): 1.4 g | KIDNEY_R (time 28 day): 1.4 g | KIDNEY_TOTAL (time 28 day): 2.7 g | LIVER (time 7 day): 12.4 g | LIVER (time 14 day): 13.1 g | LIVER (time 28 day): 15.9 g | A/G (time 7 day): 1.3 | ALP (time 7 day): 1595.8 IU/L | ALT (time 7 day): 46 IU/L | AST (time 7 day): 79.8 IU/L | BUN (time 7 day): 18.2 mg/dL | CRE (time 7 day): 0.2 mg/dL | Ca (time 7 day): 10.5 mg/dL | Cl (time 7 day): 106.4 meq/L | DBIL (time 7 day): 0 mg/dL | GLC (time 7 day): 185.2 mg/dL | IP (time 7 day): 6.7 mg/dL | K (time 7 day): 4.3 meq/L | LDH (time 7 day): 169.2 IU/L | Na (time 7 day): 141.6 meq/L | PL (time 7 day): 133 mg/dL | RALB (time 7 day): 3.1 g/dL | TBIL (time 7 day): 0.004 mg/dL | TC (time 7 day): 66.2 mg/dL | TG (time 7 day): 113.4 mg/dL | TP (time 7 day): 5.5 g/dL | gamma-GTP (time 7 day): 1.8 IU/L | A/G (time 14 day): 1.2 | ALP (time 14 day): 1261.8 IU/L | ALT (time 14 day): 45.8 IU/L | AST (time 14 day): 71.4 IU/L | BUN (time 14 day): 18.6 mg/dL | CRE (time 14 day): 0.2 mg/dL | Ca (time 14 day): 10.6 mg/dL | Cl (time 14 day): 106 meq/L | DBIL (time 14 day): 0 mg/dL | GLC (time 14 day): 182.6 mg/dL | IP (time 14 day): 6.2 mg/dL | K (time 14 day): 4.1 meq/L | LDH (time 14 day): 128.4 IU/L | Na (time 14 day): 142.6 meq/L | PL (time 14 day): 146.6 mg/dL | RALB (time 14 day): 3.2 g/dL | TBIL (time 14 day): 0.004 mg/dL | TC (time 14 day): 71.6 mg/dL | TG (time 14 day): 116.6 mg/dL | TP (time 14 day): 5.8 g/dL | gamma-GTP (time 14 day): 2.6 IU/L | A/G (time 28 day): 1.1 | ALP (time 28 day): 1046.2 IU/L | ALT (time 28 day): 48.6 IU/L | AST (time 28 day): 71.6 IU/L | BUN (time 28 day): 19.8 mg/dL | CRE (time 28 day): 0.2 mg/dL | Ca (time 28 day): 10.4 mg/dL | Cl (time 28 day): 106.4 meq/L | DBIL (time 28 day): 0 mg/dL | GLC (time 28 day): 184.6 mg/dL | IP (time 28 day): 5.9 mg/dL | K (time 28 day): 4 meq/L | LDH (time 28 day): 136 IU/L | Na (time 28 day): 143.2 meq/L | PL (time 28 day): 137.4 mg/dL | RALB (time 28 day): 3.1 g/dL | TBIL (time 28 day): 0.006 mg/dL | TC (time 28 day): 65.4 mg/dL | TG (time 28 day): 139.8 mg/dL | TP (time 28 day): 6 g/dL | gamma-GTP (time 28 day): 2 IU/L
